These are literature values, as cited in PMC11238383, “A review on the cultivation, bioactive compounds, health-promoting factors and clinical trials of medicinal mushrooms Taiwanofungus camphoratus, Inonotus obliquus and Tropicoporus linteus” (Fungal Biology and Biotechnology, 2024).

A word on the IC50: it is the concentration needed to halve the response being measured. What is called EC50 is the concentration needed to bring the measured effect to its halfway point.

≈ marks a conversion by molar mass, not a printed value. Where two headings read alike, the source gives them in different places.

In data set [1] the test system is Polyinosinic-polycytidylic acid (poly IC)-induced RAW 264.7 cells.
A further data set has as its system P. gingivalis. The following applies: ref [131], [132], [133].
The subject of another data set is Influenza A H1N1 virus. More on the design: method as in Hwang et al. [13]. The following applies: 10 uM; ref Hwang et al. [13].
In the next data set the target is H1N1 neuraminidase. To be noted: ref [13].
For data set [2] the following is noted: for antioxidant activity: ref Lee et al. [226]; for reducing power: ref [133].
For a further data set, the system named is MDA-MB-231 cells. The following applies: 10 µg/mL alone; ref [226].
The next data set relates to normal cells (LO2). To be noted: ref [63].
Data set [3] relates to human cancer cells (U251, HL60, SW480, and A549). To be noted: ref [63].
A further data set has as its system MIN6N beta-cells. Also on record: method as in Lee et al. [235]. To be noted: 10–70 uM, dose-dependent, ref Lee et al. [235].
Data set [4] has as its system Severe acute respiratory syndrome coronavirus 2 (SARS-CoV-2) virus-infected HepG2 cells. Also on record: method as in Li et al. [35], [38]. To be noted: ref Li et al. [35], [38].
The test system of data set [5] is Oleic and palmitic acids (O/P) lipid accumulation-induced HepG2 cells. More on the design: method as in Chiu et al. [138]. To be noted: ref Chiu et al. [138].
Data set [6] relates to AGS, MCF-7, and PC3 cancer cells. More on the design: method as in PMID 32899899. The following applies: ref [95].
The next data set has as its system NO. Also on record: method as in Park et al. [99]. To be noted: ref Park et al. [99].
Data set [7] has as its system mouse melanoma and human lung cancer cells. More on the design: method as in PMID 18239302. To be noted: ref [135].
For another data set, the system named is U251 and MCF-7. More on the design: method as in PMID 31891260. To be noted: ref [61].
On the set-up of data set [8]: method as in PMID 31891260. The following applies: ref [61].
In data set [9] the test system is human adenocarcinoma and human lung carcinoma cell lines. More on the design: method as in doi:10.1016/j.jff.2020.104025. The following applies: ref [97].
The next data set deals with human glioblastoma cells. Also on record: method as in Yang et al. [70]. The following applies: in vitro; ref Yang et al. [70].
For data set [10], the system named is glioblastoma-xenografted mice. Also on record: method as in Yang et al. [70]. The following applies: in vivo; ref Yang et al. [70].
The test system of the next data set is aldose reductase. Also on record: method as in Lee et al. [136]. The following applies: ref Lee et al. [136].
The subject of a further data set is A549 and HeLa cell lines. To be noted: ref [105].
On the set-up of data set [11]: method as in Zhang et al. [179]. To be noted: DPPH assay; ref Zhang et al. [179]. On the technique in general: DPPH is a stable violet radical that fades when it is reduced.
Data set [12] deals with inducible-nitric oxide synthase (iNOS) protein. More on the design: method as in PMID 33434790. To be noted: ref [107].

For the compound 4-acetylantroquinonol B, the half-inhibitory concentration (IC50) in data set [1] (ref Tu et al. [186], read-out: IC50 of NO production) was 0.57 µM. For the same compound, the NO production entry in data set [1] (ref [72]) is on record as “significantly inhibited”.

In the case of `C=C1CCCC(C)(C)C1CC/C(C)=C/CO` (single isomer, unassigned; (-)) [(-)-trans-γ-monocyclofarnesol], the antimicrobial activity result in the data set with P. gingivalis was “antimicrobial effects”.

For the compound `CC(=O)C=Cc1ccc(O)c(O)c1` [4-(3,4-Dihydroxyphenyl)-3-buten-2-one], the visible cytopathic effects in the data set on Influenza A H1N1 virus is on record as 10 uM of both inhibited the formation of visible cytopathic effects, with IC50 values lower than Oseltamivir. At H1N1 neuraminidase, the IC50 is 52 µM and the neuraminidase activity result was “inhibit neuraminidase activity”. The antioxidant activity entry in data set [2] was “Potent antioxidant activity, with higher antioxidant activity than BHA and Trolox in FRAP assay”.

`O=c1[nH]cc(F)c(=O)[nH]1` [5-fluorouracil]: the “inhibition in cell growth” value in the data set with MDA-MB-231 cells is listed as 12.6%.

With `C=C1CC(O)CC(C)(C)C1/C=C/C(C)=C/C(=O)O` (stereo not drawn) [(2E,4E)-4′-Hydroxy-γ-ionylideneacetic acid], the reducing power entry in data set [2] is reported as “weak reducing power”.

Take `C=C1CCCC(C)(C)C1/C=C/C(C)=C/C(=O)O` (stereo not drawn) [(2E,4E)-γ-Ionylideneacetic acid]: the reducing power entry in [2] is given as “weak reducing power”.

For the compound `C=C1CCCC(C)(C)C1C=CC(C)=CC(=O)O` (stereo not drawn) [( +)-γ-ionylideneacetic acid], the antimicrobial activity result in the data set with P. gingivalis is listed as “did not show any detectable activities”.

As for `C=C(CC[C@@H](C)[C@H]1CC[C@@]2(O)C3=C(C(=O)C[C@]12C)[C@@]1(C)CCC(=O)[C@@H](C)[C@@H]1CC3=O)C(C)C(=O)OCC` (stereo partly drawn) [Antcamphin Z], in the data set on normal cells (LO2), the “effect on normal cells” value was “no significant effects on normal cells”. In data set [3], the cytotoxicity result is given as “potent cytotoxic activities”.

Take `O=C(O)/C=C/c1ccc(O)c(O)c1` [Caffeic acid, caffeic acid]: the antioxidant activity entry in [2] was “Potent antioxidant activity, with higher antioxidant activity than BHA and Trolox in FRAP assay”.

With `O=c1cc(O)cc(/C=C/c2ccc(O)c(O)c2)o1` [Hispidin, hispidin], the “highest ROS scavenging activity” value was 10–70 uM had notable reactive oxygen species (ROS) scavenging activity in a dose-dependent manner, with the highest activity being 65% in the data set on MIN6N beta-cells and “about 65%” with MIN6N beta-cells (listed as hispidin). In addition, the ACE2 gene expression entry in data set [4] is “Reduced the expression of angiotensin-converting enzyme 2 (ACE2) gene”. In addition, in data set [5], the lipid accumulation result is “Significant reduction in lipid accumulation”.

`CC(C)=CC[C@@H](O)[C@@H](C)[C@H]1CC[C@@]2(C)C3=C(CC[C@]12C)[C@@]1(C)CC[C@H](O)C(C)(C)[C@@H]1CC3` [Inotodiol]: the anti-proliferative activity entry in [6] is on record as “anti-proliferative activities”. Also, in the data set with NO, the NO inhibition entry is on record as “NO-inhibiting effects”.

Take `CCOC(=O)C1=C[C@@H](OC(CC)CC)[C@H](NC(C)=O)[C@@H](N)C1` [Oseltamivir, reference compound]: the IC50 on H1N1 neuraminidase was 64 µM.

In the case of `O=c1oc(/C=C/c2ccc(O)c(O)c2)cc2oc(-c3ccc(O)c(O)c3)cc12` [Phellifuropyranone A], the antiproliferative activity entry in [7] is “antiproliferative activity”.

As to `CC1=CC[C@@H]([C@@](C)(O)[C@@H]2C[C@H]2C(C)(C)O)CC1` [Phellilane L], the antimicrobial activity result in the data set with P. gingivalis is “antimicrobial activities”.

`C/C=C(\CO)CC[C@@H](C)[C@H]1CC[C@H]2C3=C(C(=O)C[C@]12C)[C@@]1(C)CC[C@@H](O)[C@](C)(O)[C@@H]1C[C@@H]3O` [antcamphorol C]: in the data set on U251 and MCF-7, the cytotoxicity result is given as “cytotoxic activities”.

For `C=C(CC[C@@H](C)[C@H]1CC[C@H]2C3=CC[C@H]4[C@H](C)[C@@H](O)CC[C@]4(C)C3=C[C@@H](O)[C@]12C)C(C)C` [antcamphorol H], the cytotoxicity result with U251 and MCF-7 is on record as “cytotoxic activities”.

Take `C=C(CC[C@@H](C)[C@H]1CC[C@H]2C3=C(C(=O)C[C@]12C)[C@@]1(C)CCC(=O)[C@@H](C)[C@@H]1C[C@H]3O)C(C)C` [antcamphorol J]: the ROS scavenging result in [8] is recorded as “ROS scavenging abilities”.

For `C=C(C)[C@@H]1CC[C@]2(CO)CC[C@]3(C)[C@H](CC[C@@H]4[C@@]5(C)CC[C@H](O)C(C)(C)[C@@H]5CC[C@]43C)[C@@H]12` [betulin], in data set [9], the proliferation entry is recorded as “inhibited the proliferation”.

`C=C(C)[C@@H]1CC[C@]2(C(=O)O)CC[C@]3(C)[C@H](CC[C@@H]4[C@@]5(C)CC[C@H](O)C(C)(C)[C@@H]5CC[C@]43C)[C@@H]12` [betulinic acid]: the proliferation result in [9] is “inhibited the proliferation”.

With `COC1=C(OC)C(=O)C(C)=CC1=O` [coenzyme Q0, 2,3-dimethoxy-5-methyl-1,4-benzoquinone], the “apoptosis and autophagic cell death” value is “inducing apoptosis and autophagic cell death” with human glioblastoma cells; “inducing apoptosis and autophagic cell death” in data set [10].

Consider `CC1=CC(=O)[C@H](c2c(O)cc(/C=C/c3ccc(O)c(O)c3)oc2=O)[C@@H](c2ccc(O)c(O)c2)O1` [davallialactone], for which, in the data set with aldose reductase, the aldose reductase inhibition result was “capable of inhibiting aldose reductase”.

For the compound `O=c1oc2c(O)c(O)cc3c(=O)oc4c(O)c(O)cc1c4c23` [ellagic acid], the aldose reductase inhibition result with aldose reductase is recorded as “capable of inhibiting aldose reductase”.

On to `CC(C)(O)[C@H]1CC[C@H]([C@H]2CC[C@@]3(C)C4=C(CC[C@]23C)[C@@]2(C)CC[C@H](O)C(C)(C)[C@@H]2CC4)[C@H]1O` [inonotsutriol A], for which, in the data set on NO, the NO inhibition entry is “NO-inhibiting effects”.

On to `C[C@H](/C=C/C=O)[C@H]1CC[C@@]2(C)C3=C(CC[C@]12C)[C@@]1(C)CC[C@H](O)C(C)(C)[C@@H]1CC3` [inonotusane C], for which the cytotoxicity entry in the data set with A549 and HeLa cell lines is listed as “cytotoxic activities”.

In the case of `C=C1CCCC(C)(C)[C@H]1[C@H]1O[C@@H]1/C(C)=C/C(=O)O` [phellidene E], in the data set with P. gingivalis, the antimicrobial activity entry is listed as “did not show any detectable activities”.

Regarding `O=C1C=C(/C=C/c2ccc(O)c(O)c2)OC12C(c1cc3oc(=O)c4cc(O)c(O)cc4c3c(=O)o1)=Cc1cc(O)c(O)cc12` (stereo not drawn) [phelligridin G], the antiproliferative activity result in data set [7] is reported as “antiproliferative activity”.

As to `CC(C)(C)c1cc(O)ccc1O` [tert-Butylhydroquinone (TBHQ), tert-Butylhydroquinone], the EC50 in data set [11] was 11.2 µg/mL (≈ 67.4 µM).

On to `CC(C)=CCC[C@@H](C(=O)O)[C@H]1CC[C@@]2(C)C3=C(CC[C@]12C)[C@@]1(C)CC[C@H](O)C(C)(C)[C@@H]1CC3` [trametenolic acid], for which the anti-proliferative activity entry in data set [6] was “anti-proliferative activities”. Besides, in the data set with NO, the NO inhibition entry is “NO-inhibiting effects”.

For the compound `O=C1O[C@H]([C@@H](O)CO)C(O)=C1O` [vitamin C, ascorbic acid], the EC50 in [11] is given as 6 µg/mL (≈ 34.1 µM).

With antcamphorol G, the ROS scavenging result in [8] is given as “ROS scavenging abilities”.

Regarding antcamphorol I, the ROS scavenging entry in [8] is given as “ROS scavenging abilities”.

antroquinonol Y: the “effect on normal cells” value with normal cells (LO2) was “without affecting normal cells”. The cytotoxicity entry in [3] is “significant cytotoxic effects”.

For inonotusol I, the “interaction with iNOS protein” value in [12] is “capable of interacting with inducible-nitric oxide synthase (iNOS) protein”.

Turning to inonotusol L, the “interaction with iNOS protein” value in [12] was “capable of interacting with inducible-nitric oxide synthase (iNOS) protein”.

phellilane H: the antimicrobial activity result in the data set with P. gingivalis is listed as “did not show any detectable activities”. The reducing power entry in [2] is reported as “weak reducing power”.
